Patent US20190209650A1, “METHOD TO IMPROVE THE EFFECTIVENESS OF ANTI-CANCER THERAPIES BY EXPOSING CANCER CELLS TO AN INFLAMMATORY STIMULUS PRIOR TO TREATMENT” (priority 2016, published 2019)

Experiments:
[1] = system: SW620 colorectal cancer cell line; experiment: Flow cytometry of EpCAM positive cells and cancer stem cell (CD44+CD133-) subpopulation after incubation with cytokines; assay type: cell-based, human; details: for % Gated, R4 (CD44FITC, CD133 PE) / % Total, R4 (CD44FITC, CD133 PE): population R4 & R14 & R2 & R1; for % Gated, R5 (CD44FITC, CD133 PE) / % Total, R5 (CD44FITC, CD133 PE): population R5 & R14 & R2 & R1; for % Gated, R6 (CD44FITC, CD133 PE) / % Total, R6 (CD44FITC, CD133 PE): population R6 & R14 & R2 & R1; for % Gated, R7 Cancer Stem Cell (CSC) (CD44+CD133-) / % Total, R7 Cancer Stem Cell (CSC) (CD44+CD133-): population R7 & R14 & R2 & R1; for % Gated, R8 (CD44FITC, EpCAMefluor710) / % Total, R8 (CD44FITC, EpCAMefluor710): population R8 & R14 & R2 & R1; for % Gated, R9 EpCAM positive Cells (CD44FITC, EpCAMefluor710) / % Total, R9 EpCAM positive Cells (CD44FITC, EpCAMefluor710): population R9 & R14 & R2 & R1; for % Gated, R10 EpCAM positive Cells (CD44FITC, EpCAMefluor710) / % Total, R10 EpCAM positive Cells (CD44FITC, EpCAMefluor710): population R10 & R14 & R2 & R1; for % Gated, R11 (CD44FITC, EpCAMefluor710) / % Total, R11 (CD44FITC, EpCAMefluor710): population R11 & R14 & R2 & R1; for putative stem cell population (CD44+/CD133-): SW620; for percentage of cancer stem cells: human cancer cell line, single agent at 1000 pg/ml
Method: This number returned to near baseline 21% at 48 hours. […] This change was transient, occurring within 24 hours and rapidly returning to baseline.
The data from the scatter plots of FIGS. 1A-1H, 2A-2H, and 3A-3H are reproduced below in Tables 1-3.
Based on the above data of potentiating the effectiveness of chemotherapy by exposing cancer cells to specific cytokines such as HGF and or Il-6 within a time limited fashion, the mechanism behind this ability to sensitize cancer cells may not simply be triggering cellular proliferation. Specific cytokine exposures can transiently cause a cancer cell population to differentiate away from a more stem cell enriched, mesenchymal phenotype towards a more differentiated, epithelial cell population more sensitive to the effects of anti-cancer therapies (see Tables 1-3).
In particular, exposure to a control population of SW620 colorectal cancer cell line to HGF at a concentration of 10 ng per ml for 24 hours caused the control putative stem cell population (CD44+/CD133−) to drop from 33% at baseline (see Table 1, R7 region, CD 44 positive/CD133 negative) to 1% (see Table 2, R7, region CD 44 positive/CD133 negative). This drop was transient, as exposure to the same cell line for 48 hours of HGF at 10 ng per ml transitioned the phenotypic distribution back towards a stem cell enriched phenotype with 23% putative stem cells (see Table 3, R7 region, CD 44 positive/CD133 negative).

SW 620 cell lines = experiment: Cancer stem cells remaining after cytokine exposure and 24 hours exposure to CPT-11 (Irinotecan); assay type: cell-based, human; details: FIG. 4
Method: FIG. 4 depicts a table showing percentage of Cancer Stem Cells remaining after exposure to various cytokines and 24 hours exposure to CPT-11 (Irinotecan). The present inventor then performed experiments to determine if exposure to HGF would improve the effectiveness of chemotherapy treatment, based on a prediction that this stimulus, by fostering differentiation of the stem cell subpopulation, would render these cells more susceptible to chemotherapy. […] Furthermore, exposure to HGF alone for 24 hours at a concentration of 10 ng per ml followed by treatment with CPT-11 in SW 620 cell lines was able to kill cancer stem cells effectively as well, given that there were no remaining cancer stem cells after this sensitization (FIG. 4 0% CD44+/CD133−).

PANC1 = experiment: Cancer cell viability after 48 hours HGF only pretreatment followed by 72 hour combination treatment; assay type: cell-based, human; details: 48 hours HGF exposure followed by 72 hour combination treatment; FIG. 7
Method: FIG. 7 depicts tables showing cancer cell viability after 48 hours of HGF only pretreatment, followed by 72 hour combination treatment. HI1=HGF 0.5 ng/ml; H12=HGF 1 ng/ml; HI3=HGF 5 ng/ml. A) PANC1 48 hour HGF exposure followed by 72 hour combination treatment (COMBO=30 paclitaxel, 250 μg/mL oseltamivir phosphate, and 2.5 mM aspirin). B) PANC1 48 hour HGF exposure followed by 72 hour combination treatment (COMBO=50 μM paclitaxel, 250 μg/mL oseltamivir phosphate, and 2.5 mM aspirin).
(§1) In the following experiments various concentrations of hepatocyte growth factor (HGF) and Interleukin 6 (IL-6), used singly and together, were used to sensitize cancer cell lines to cytotoxic chemotherapy. In these experiments a combination anti-cancer treatment of paclitaxel with aspirin and oseltamivir phosphate (OP) were used. Cell lines treated with the combination treatment (COMBO) alone were compared with those treated with the combination treatment after exposure to cytokines.
In FIG. 7, exposing human pancreatic cancer cell lines (PANC-1) cells to HGF for 48 hours at various concentrations sensitized cancer cells to subsequent combination treatment. […] P-value in FIG. 7 was calculated based on comparison between Combination Treatment vs. Pretreatment Followed by Combination Treatment.

cancer cells = experiment: Cancer cell viability after 72 hours HGF only pretreatment followed by 72 hour combination treatment; assay type: cell-based; details: 72 hours HGF exposure followed by 72 hour combination treatment; FIG. 8
Method: FIG. 8 depicts a table showing cancer cell viability after 72 hours of HGF only pretreatment, followed by 72 hour combination treatment (COMBO=30 μM paclitaxel, 250 μs/mL oseltamivir phosphate, and 2.5 mM aspirin). HI1=HGF 0.5 ng/ml; HI2=HGF 1 ng/ml; HI3=HGF 5 ng/ml.
as §1
Thus, exposure to this particular cytokine, for longer than 48 hours can increase the likelihood that the cancer cell population is transitioning over to a more stem cell enriched phenotype, rendering the cells less sensitive to the effects of cytotoxic therapies. Other cytokines such as HGF, IL-6, PGE-2, MCP-1, MMP-9, TGF-beta, PDGF-BB, and PGF, the up-regulation of which is associated with stem cell enrichment should also be administered in this time limited manner to avoid a stem cell enriched phenotype that is more resistant to the chemotherapy treatment. […]

[2] = after exposure to HGF, then chemotherapy (CPT-11)

Substance: HGF: Hepatocyte Growth Factor, cytokine
- % Gated, R4 (CD44FITC, CD133 PE) ([1]; 0 hour incubation): 48.6%
- % Total, R4 (CD44FITC, CD133 PE) ([1]; 0 hour incubation): 46.6%
- % Gated, R5 (CD44FITC, CD133 PE) ([1]; 0 hour incubation): 3.61%
- % Total, R5 (CD44FITC, CD133 PE) ([1]; 0 hour incubation): 3.45%
- % Gated, R6 (CD44FITC, CD133 PE) ([1]; 0 hour incubation): 14.2%
- % Total, R6 (CD44FITC, CD133 PE) ([1]; 0 hour incubation): 13.6%
- % Gated, R7 Cancer Stem Cell (CSC) (CD44+CD133-) ([1]; 0 hour incubation): 33.8%
- % Total, R7 Cancer Stem Cell (CSC) (CD44+CD133-) ([1]; 0 hour incubation): 32.3%
- % Gated, R8 (CD44FITC, EpCAMefluor710) ([1]; 0 hour incubation): 5.28%
- % Total, R8 (CD44FITC, EpCAMefluor710) ([1]; 0 hour incubation): 5.06%
- % Gated, R9 EpCAM positive Cells (CD44FITC, EpCAMefluor710) ([1]; 0 hour incubation): 53.1%
- % Total, R9 EpCAM positive Cells (CD44FITC, EpCAMefluor710) ([1]; 0 hour incubation): 50.9%
- % Gated, R10 EpCAM positive Cells (CD44FITC, EpCAMefluor710) ([1]; 0 hour incubation): 39%
- % Total, R10 EpCAM positive Cells (CD44FITC, EpCAMefluor710) ([1]; 0 hour incubation): 37.4%
- % Gated, R11 (CD44FITC, EpCAMefluor710) ([1]; 0 hour incubation): 2.16%
- % Total, R11 (CD44FITC, EpCAMefluor710) ([1]; 0 hour incubation): 2.07%
- % Gated, R4 (CD44FITC, CD133 PE) ([1]; 24 h incubation): 98.6%
- % Total, R4 (CD44FITC, CD133 PE) ([1]; 24 h incubation): 84.7%
- % Gated, R5 (CD44FITC, CD133 PE) ([1]; 24 h incubation): 0%
- % Total, R5 (CD44FITC, CD133 PE) ([1]; 24 h incubation): 0%
- % Gated, R6 (CD44FITC, CD133 PE) ([1]; 24 h incubation): 0.07%
- % Total, R6 (CD44FITC, CD133 PE) ([1]; 24 h incubation): 0.06%
- % Gated, R7 Cancer Stem Cell (CSC) (CD44+CD133-) ([1]; 24 h incubation): 1.01%
- % Total, R7 Cancer Stem Cell (CSC) (CD44+CD133-) ([1]; 24 h incubation): 0.87%
- % Gated, R8 (CD44FITC, EpCAMefluor710) ([1]; 24 h incubation): 99.8%
- % Total, R8 (CD44FITC, EpCAMefluor710) ([1]; 24 h incubation): 85.7%
- % Gated, R9 EpCAM positive Cells (CD44FITC, EpCAMefluor710) ([1]; 24 h incubation): 0.02%
- % Total, R9 EpCAM positive Cells (CD44FITC, EpCAMefluor710) ([1]; 24 h incubation): 0.02%
- % Gated, R10 EpCAM positive Cells (CD44FITC, EpCAMefluor710) ([1]; 24 h incubation): 0.02%
- % Total, R10 EpCAM positive Cells (CD44FITC, EpCAMefluor710) ([1]; 24 h incubation): 0.02%
- % Gated, R11 (CD44FITC, EpCAMefluor710) ([1]; 24 h incubation): 0.2%
- % Total, R11 (CD44FITC, EpCAMefluor710) ([1]; 24 h incubation): 0.17%
- % Gated, R4 (CD44FITC, CD133 PE) ([1]; 48 h incubation): 38%
- % Total, R4 (CD44FITC, CD133 PE) ([1]; 48 h incubation): 34.2%
- % Gated, R5 (CD44FITC, CD133 PE) ([1]; 48 h incubation): 7.48%
- % Total, R5 (CD44FITC, CD133 PE) ([1]; 48 h incubation): 6.73%
- % Gated, R6 (CD44FITC, CD133 PE) ([1]; 48 h incubation): 31.3%
- % Total, R6 (CD44FITC, CD133 PE) ([1]; 48 h incubation): 28.2%
- % Gated, R7 Cancer Stem Cell (CSC) (CD44+CD133-) ([1]; 48 h incubation): 23.9%
- % Total, R7 Cancer Stem Cell (CSC) (CD44+CD133-) ([1]; 48 h incubation): 21.5%
- % Gated, R8 (CD44FITC, EpCAMefluor710) ([1]; 48 h incubation): 20%
- % Total, R8 (CD44FITC, EpCAMefluor710) ([1]; 48 h incubation): 18%
- % Gated, R9 EpCAM positive Cells (CD44FITC, EpCAMefluor710) ([1]; 48 h incubation): 34.7%
- % Total, R9 EpCAM positive Cells (CD44FITC, EpCAMefluor710) ([1]; 48 h incubation): 31.2%
- % Gated, R10 EpCAM positive Cells (CD44FITC, EpCAMefluor710) ([1]; 48 h incubation): 31.8%
- % Total, R10 EpCAM positive Cells (CD44FITC, EpCAMefluor710) ([1]; 48 h incubation): 28.7%
- % Gated, R11 (CD44FITC, EpCAMefluor710) ([1]; 48 h incubation): 14.4%
- % Total, R11 (CD44FITC, EpCAMefluor710) ([1]; 48 h incubation): 12.9%
- putative stem cell population (CD44+/CD133-) ([1]; 10 ng per ml for 24 hours (Table 2, R7 region)): 1%
- putative stem cell population (CD44+/CD133-) ([1]; 10 ng per ml for 48 hours (Table 3, R7 region)): 23%
- putative stem cell population (CD44+/CD133-) ([1]; at baseline (Table 1, R7 region)): 33%
- percentage of cancer stem cells ([1]; at 24 hours): less than one percent
- percentage of cancer stem cells ([1]; at 48 hours): 21%
- percentage of cancer stem cells ([1]; prior to exposure): approximately 30%
- remaining cancer stem cells CD44+/CD133- (SW 620 cell lines; HGF alone 24 hours at 10 ng per ml followed by CPT-11, SW 620): 0%
- cancer stem cells killed (SW 620 cell lines; [2]): 100%
- viable cancer stem cells remaining (SW 620 cell lines; [2]): no viable cancer stem cells remaining
- reduction in cell viability (PANC1): 87%
- sensitization of cancer cells to the combination treatment (cancer cells): made the combination treatment less effective
